Source: patent US10464922B2, “Metalloenzyme inhibitor compounds” (NQP 1598 LTD., priority 2015, dated 2019)
In brackets after ≈: the same amount, converted by molar mass.

Key:
[1] = tested on: A. fumigatus; assay: A. fumigatus MIC at 100% growth inhibition (CLSI M38-A2); format: cell-based, Aspergillus fumigatus; conditions: 100% growth inhibition, range tested 8-0.0078 μg/mL, values given as ranges; for MIC: Aspergillus fumigatus, read-out: Aspergillus fumigatus MIC
Experimental: A. fumigatus MICs were determined at 100% growth inhibition following CLSI guidelines at a concentration range of 8-0.0078 μg/mL (CLSI M38-A2).

[2] = tested on: C. albicans (ATCC 90028); assay: Minimum inhibitory concentration, in vitro broth microdilution assay (CLSI M27-A2); format: cell-based, Candida albicans; conditions: ATCC 90028, about 50% growth reduction, 2 days at 36° C., range tested 8-0.0078 μg/mL, values given as ranges; for MIC: Candida albicans, ATCC90028, 48 h, read-out: Candida albicans MIC
Method in brief: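 CLSI M27-A2 broth microdilution: 11 two-fold DMSO dilutions into RPMI-1640+MOPS with 1×10^3–1×10^4 CFU/mL, 2 percent DMSO final. Incubated 2 days at 36° C; MIC from visual growth scoring, duplicates.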

Row | Structure (SMILES) | MIC [1] | MIC [2] | Aspergillus fumigatus MIC [1] | Candida albicans MIC [2]
1 | O=C(Nc1ccc(N2CCN(c3ccc(-c4ccc(C(F)(F)[C@](O)(Cn5cnnn5)c5ccc(F)cc5F)nc4)cc3)CC2)cc1)C(O)CC(F)(F)F (stereo partly drawn) [Example 105, N-(4-(4-(4-(6-((R)-2-(2,4-difluorophenyl)-1,1-difluoro-2-hydroxy-3-(1H-tetrazol-1-yl)propyl)pyridin-3-yl)phenyl)piperazin-1-yl)phenyl)-4,4,4-trifluoro-2-hydroxybutanamide] | > 8 µg/mL | 0.0078 to 0.01 µg/mL (≈ 0.0105 to 0.0134 µM) | – | –
2 | OC(c1ccc(N2CCN(c3ccc(-c4ccc(C(F)(F)C(O)(Cn5cnnn5)c5cc(F)ccc5F)nc4)cc3)CC2)cc1)C(F)(F)F (stereo not drawn) [15(+)] | – | – | 0.25 to 1.0 µg/mL | ≤0.0078 to 0.010 µg/mL
3 | OC(c1ccc(N2CCN(c3ccc(-c4ccc(C(F)(F)[C@](O)(Cn5cnnn5)c5ccc(F)cc5F)nc4)cc3)CC2)cn1)C1CC1 (stereo partly drawn) [Example 46] | > 8 µg/mL | 0.0078 to 0.01 µg/mL (≈ 0.0118 to 0.0151 µM) | – | –
4 | OC(c1ccc(N2CCN(c3ccc(-c4ccc(C(F)(F)C(O)(Cn5cnnn5)c5cc(F)ccc5F)nc4)cc3)CC2)cc1)C(F)(F)F (stereo not drawn) [15(−), 2-(2,5-difluorophenyl)-1,1-difluoro-3-(1H-tetrazol-1-yl)-1-(5-(4-(4-(4-(2,2,2-trifluoro-1-hydroxyethyl)phenyl)piperazin-1-yl)phenyl)pyridin-2-yl) propan-2-ol] | – | – | >8 µg/mL | 0.10 to 1.0 µg/mL
5 | CC[C@@H]([C@H](C)O)n1ncn(-c2ccc(N3CCN(c4ccc(-c5ccc(C(F)(F)[C@](O)(Cn6cnnn6)c6ccc(F)cc6)nc5)cc4)CC3)cn2)c1=O [109(+), (+)-4-(5-(4-(4-(6-((R)-1,1-difluoro-2-(4-fluorophenyl)-2-hydroxy-3-(1H-tetrazol-1-yl)propyl)pyridin-3-yl)phenyl)piperazin-1-yl)pyridin-2-yl)-2-((2S,3S)-2-hydroxypentan-3-yl)-2,4-dihydro-3H-1,2,4-triazol-3-one] | – | – | 0.25 to 1.0 µg/mL | ≤0.0078 to 0.010 µg/mL
6 | N#Cc1ccc(N2CCN(Cc3ccc(-c4ccc(C(F)(F)[C@](O)(Cn5cnnn5)c5ccc(F)cc5F)nc4)cc3)C(=O)C2)cc1 [Example 27, (R)-4-(4-(4-(6-(2-(2,4-difluorophenyl)-1,1-difluoro-2-hydroxy-3-(1H-tetrazol-1-yl)propyl)pyridin-3-yl)benzyl)-3-oxopiperazin-1-yl) benzonitrile] | > 8 µg/mL | 0.01 to 0.1 µg/mL (≈ 0.0156 to 0.156 µM) | – | –
7 | CN(C)Cc1ccc(N2CCN(c3ccc(-c4ccc(C(F)(F)[C@](O)(Cn5cnnn5)c5ccc(F)cc5F)nc4)cc3)CC2)cn1 [Example 33, (R)-2-(2,4-difluorophenyl)-1-(5-(4-(4-(6-((dimethylamino)methyl)pyridin-3-yl)piperazin-1-yl)phenyl)pyridin-2-yl)-1,1-difluoro-3-(1H-tetrazol-1-yl) propan-2-ol] | 1 to 4 µg/mL (≈ 1.54 to 6.18 µM) | 0.01 to 0.1 µg/mL (≈ 0.0154 to 0.154 µM) | – | –

Next, values leading:

Row | MIC [1] | MIC [2] | Aspergillus fumigatus MIC [1] | Candida albicans MIC [2] | Structure (SMILES)
8 | 0.25 to 1 µg/mL (≈ 0.348 to 1.39 µM) | 0.01 to 0.1 µg/mL (≈ 0.0139 to 0.139 µM) | – | – | CC[C@H](NC(=O)c1ccc(N2CCN(c3ccc(-c4ccc(C(F)(F)[C@](O)(Cn5cnnn5)c5ccc(F)cc5F)nc4)cc3)CC2)cc1)[C@H](C)O [Example 57, 4-(4-(4-(6-((R)-2-(2,4-difluorophenyl)-1,1-difluoro-2-hydroxy-3-(1H-tetrazol-1-yl)propyl)pyridin-3-yl)phenyl)piperazin-1-yl)-N-((2S,3S)-2-hydroxypentan-3-yl) benzamide]
9 | 0.25 to 1 µg/mL (≈ 0.395 to 1.58 µM) | 0.0078 to 0.01 µg/mL (≈ 0.0123 to 0.0158 µM) | – | – | N#Cc1ccc(N2CCN(c3ccc(-c4ccc(C(F)(F)[C@](O)(Cn5cnnn5)c5ccc(F)cc5F)nc4)cc3)CC2)cc1F [Example 8, (R)-4-(4-(4-(6-(2-(2,4-difluorophenyl)-1,1-difluoro-2-hydroxy-3-(1H-tetrazol-1-yl)propyl)pyridin-3-yl)phenyl)piperazin-1-yl)-2-fluorobenzonitrile]
10 | 0.25 to 1 µg/mL (≈ 0.411 to 1.65 µM) | 0.0078 to 0.01 µg/mL (≈ 0.0128 to 0.0165 µM) | – | – | O[C@@](Cn1cnnn1)(c1ccc(F)cc1F)C(F)(F)c1ccc(-c2ccc(N3CCN(c4ccc(F)cc4)CC3)cc2)cn1 [Example 2, (R)-2-(2,4-difluorophenyl)-1,1-difluoro-1-(5-(4-(4-(4-fluorophenyl)piperazin-1-yl)phenyl)pyridin-2-yl)-3-(1H-tetrazol-1-yl) propan-2-ol]
11 | 0.062 to 0.25 µg/mL (≈ 0.0832 to 0.336 µM) | 0.0078 to 0.01 µg/mL (≈ 0.0105 to 0.0134 µM) | – | – | CC(C)(O)Cn1ncn(-c2ccc(N3CCN(c4ccc(-c5ccc(C(F)(F)[C@](O)(Cn6cnnn6)c6ccc(F)cc6F)nc5)cc4)CC3)cc2)c1=O [Example 67, (R)-4-(4-(4-(4-(6-(2-(2,4-difluorophenyl)-1,1-difluoro-2-hydroxy-3-(1H-tetrazol-1-yl)propyl)pyridin-3-yl)phenyl)piperazin-1-yl)phenyl)-2-(2-hydroxy-2-methylpropyl)-2,4-dihydro-3H-1,2,4-triazol-3-one]
12 | 0.25 to 1 µg/mL (≈ 0.37 to 1.48 µM) | 0.0078 to 0.01 µg/mL (≈ 0.0115 to 0.0148 µM) | – | – | CCC(C)C(O)c1ccc(N2CCN(c3ccc(-c4ccc(C(F)(F)[C@](O)(Cn5cnnn5)c5ccc(F)cc5F)nc4)cc3)CC2)cc1 (stereo partly drawn) [Example 59, 1-(4-(4-(4-(6-((R)-2-(2,4-difluorophenyl)-1,1-difluoro-2-hydroxy-3-(1H-tetrazol-1-yl)propyl)pyridin-3-yl)phenyl)piperazin-1-yl)phenyl)-2-methylbutan-1-ol]
13 | 0.25 to 1 µg/mL (≈ 0.385 to 1.54 µM) | 0.01 to 0.1 µg/mL (≈ 0.0154 to 0.154 µM) | – | – | CCC(O)c1ccc(N2CCN(c3ccc(-c4ccc(C(F)(F)[C@](O)(Cn5cnnn5)c5ccc(F)cc5F)nc4)cc3)CC2)cn1 (stereo partly drawn) [Example 48, 1-(5-(4-(4-(6-((R)-2-(2,4-difluorophenyl)-1,1-difluoro-2-hydroxy-3-(1H-tetrazol-1-yl)propyl)pyridin-3-yl)phenyl)piperazin-1-yl)pyridin-2-yl)propan-1-ol]
14 | 0.25 to 1 µg/mL (≈ 0.35 to 1.4 µM) | 0.0078 to 0.01 µg/mL (≈ 0.0109 to 0.014 µM) | – | – | CC(C)n1ccn(-c2ccc(N3CCN(c4ccc(-c5ccc(C(F)(F)[C@](O)(Cn6cnnn6)c6ccc(F)cc6F)nc5)cc4)CC3)cc2)c1=O [Example 91, 1-(4-(4-(4-(6-(2-(2,4-difluorophenyl)-1,1-difluoro-2-hydroxy-3-(1H-tetrazol-1-yl)propyl)pyridin-3-yl)phenyl)piperazin-1-yl)phenyl)-3-isopropyl-1,3-dihydro-2H-imidazol-2-one]
15 | 0.25 to 1 µg/mL (≈ 0.407 to 1.63 µM) | 0.0078 to 0.01 µg/mL (≈ 0.0127 to 0.0163 µM) | – | – | N#Cc1ccc(C2CCN(c3ccc(-c4ccc(C(F)(F)[C@](O)(Cn5cnnn5)c5ccc(F)cc5F)nc4)cc3)CC2)cc1 [Example 26, (R)-4-(1-(4-(6-(2-(2,4-difluorophenyl)-1,1-difluoro-2-hydroxy-3-(1H-tetrazol-1-yl)propyl)pyridin-3-yl)phenyl)piperidin-4-yl) benzonitrile]
16 | 0.25 to 1 µg/mL (≈ 0.387 to 1.55 µM) | 0.0078 to 0.01 µg/mL (≈ 0.0121 to 0.0155 µM) | – | – | CN(C)Cc1ccc(N2CCN(c3ccc(-c4ccc(C(F)(F)[C@](O)(Cn5cnnn5)c5ccc(F)cc5F)nc4)cc3)CC2)cc1 [Example 30]
17 | 0.25 to 1 µg/mL (≈ 0.362 to 1.45 µM) | 0.0078 to 0.01 µg/mL (≈ 0.0113 to 0.0145 µM) | – | – | CC(C)(C)CC(O)c1ccc(N2CCN(c3ccc(-c4ccc(C(F)(F)[C@](O)(Cn5cnnn5)c5ccc(F)cc5F)nc4)cc3)CC2)cn1 (stereo partly drawn) [Example 118, 1-(5-(4-(4-(6-((R)-2-(2,4-difluorophenyl)-1,1-difluoro-2-hydroxy-3-(1H-tetrazol-1-yl)propyl)pyridin-3-yl)phenyl)piperazin-1-yl)pyridin-2-yl)-3,3-dimethylbutan-1-ol]
18 | 0.25 to 1 µg/mL (≈ 0.369 to 1.48 µM) | 0.01 to 0.1 µg/mL (≈ 0.0148 to 0.148 µM) | – | – | CC(C)(C)C(O)c1ccc(N2CCN(c3ccc(-c4ccc(C(F)(F)[C@](O)(Cn5cnnn5)c5ccc(F)cc5F)nc4)cc3)CC2)cn1 (stereo partly drawn) [Example 50, 1-(5-(4-(4-(6-((R)-2-(2,4-difluorophenyl)-1,1-difluoro-2-hydroxy-3-(1H-tetrazol-1-yl)propyl)pyridin-3-yl)phenyl)piperazin-1-yl)pyridin-2-yl)-2,2-dimethylpropan-1-ol]
